Columns and labels:
pERK in ASPC1 cells = test: Inhibition of KRas phosphorylation of ERK (Cisbio HTRF pERK assay); settings: Homo sapiens, ASPC1, read-out: Inhibition (HTRF IC50) of KRas-mediated Phosphorylation of ERK, AsPC-1
pERK in HCT116 cells = test: as above; settings: Homo sapiens, HCT-116, read-out: Inhibition (HTRF IC50) of KRas-mediated Phosphorylation of ERK, HCT116
pERK in H460 cells = test: as above; settings: Homo sapiens, NCI-H460, read-out: Inhibition (HTRF IC50) of KRas-mediated Phosphorylation of ERK, H460
Description: (§2) To harvest cells from flask using 0.05% Trypsin/EDTA solution. Add 10 mL of media to stop trypsinizing. Pipette the cells into a conical bottom 50 mL centrifuge tube and centrifuge 5 min×1000 rpm. • 2. Re-suspend the cell pellet in media, take a cell count, and then adjust the cell density using fresh media. • 3. Seed 6,000 cells into cell culture plate with 50 μL media. […] Incubate cell plate overnight in a 37° C., 5% CO2 incubator. • Compound titrations • 1. Use Tecan to complete the compound addition. Compounds start from 10 uM top, 3-fold dilution, and 10 doses. The final DMSO concentration is 0.8%. Dispensed 0.2 uM Trametinib as Min control. • 2. Incubate cell plate for 3 hrs in the incubator. • Detection with cisbio pERK HTRF kit • 1. […] At the end of the compound treatment, flick-off the media. • 3. Add 35 μL of lysis buffer per well using a Multidrop Combi. Then place on a plate agitator shaking at 300 rpm at 4° C. for 40 mins. • 4. Make up the HTRF antibody buffer. For each assay plate, mix 50 μL of d2-conjugate antibody with 950 μL of detection buffer. Similarly, mix 50 μL of Cryptate antibody with 950 μL of detection buffer. Then mix the two diluted antibodies together. • 5. Dispense 3.4 μL the antibody buffer to wells of an empty assay plate. Seal the plate and centrifuge plate 30 sec×1000 rpm. • 6. At the end of the 4° C. lysis, centrifuge the lysate plates 3 mins×1500 rpm. • 7. Use the Bravo to transfer 13.6 μL of lysate from cell culture plate to assay plate.
(§3) Then incubate assay plate for 2 hrs at room temperature. […] At the end of incubation, read plate on the Envision after centrifuging plate 30 sec× • 1000 rpm.

KRas G12V = KRas G12V (Homo sapiens, UniProt P01116, G12V); test: biochemical;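 further: KRas binding measured by TR-FRET displacement at room temperature, IC50 fitted from percent of control values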
Description: (§4) The ability of a compound to bind to KRas was measured using a TR-FRET displacement assay. […] After a 60-minute incubation at room temperature, the reaction was measured using a BMG LABTECH CLARIO star Plus via TR-FRET. […] The POC values were fit to a 4-parameter IC50 equation and the IC50 value reported.

pERK in H358 cells = test: Inhibition of KRas phosphorylation of ERK (Cisbio HTRF pERK assay); settings: Homo sapiens, NCI-H358, read-out: Inhibition (HTRF IC50) of KRas-mediated Phosphorylation of ERK, H358
KRas G12R = KRas G12R (Homo sapiens, UniProt P01116, G12R); test: biochemical;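 further: TR-FRET displacement assay of compound binding to KRas, read after one hour at room temperature, potency from a four-parameter fit of percent-of-control values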
Description: as §4

KRas G12D = KRas G12D (Homo sapiens, UniProt P01116, G12D); test: biochemical;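 further: TR-FRET displacement binding assay on KRas, read after a one-hour incubation at room temperature, IC50 fitted from percent-of-control values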
Description: as §4

pERK in MKN1 cells = test: Inhibition of KRas phosphorylation of ERK (Cisbio HTRF pERK assay); settings: Homo sapiens, MKN-1, 3 h, read-out: Inhibition (HTRF IC50) of KRas-mediated Phosphorylation of ERK, MKN1
Description: as §2, §3

pERK in H727 cells = test: as above; settings: Homo sapiens, NCI-H727, read-out: Inhibition (HTRF IC50) of KRas-mediated Phosphorylation of ERK, H727
pERK in PSN1 cells = test: as above; settings: Homo sapiens, PSN1, 3 h, read-out: Inhibition (HTRF IC50) of KRas-mediated Phosphorylation of ERK, PSN1
[1] = tested on: phospho-ERK in AsPC-1 (G12D) cells; test: Inhibition of KRas-mediated phosphorylation of ERK (in-cell western); format: cell-based; settings: Homo sapiens, ASPC1, 3 h, 3 hours compound, phospho-ERK normalized to GAPDH
Outline: (§1)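 Following fixation in formaldehyde and permeabilization in cold methanol, ERK phosphorylated at Thr202/Tyr204 was quantified against GAPDH.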

[2] = tested on: phospho-ERK in NCI-H727 (G12V) cells; test: as above; format: cell-based; settings: Homo sapiens, NCI-H727, 3 h, 3 hours compound, phospho-ERK normalized to GAPDH
Outline: as §1

[3] = tested on: phospho-ERK in NCI-H460 (Q61H) cells; test: as above; format: cell-based; settings: Homo sapiens, NCI-H460, 3 h, 3 hours compound, phospho-ERK normalized to GAPDH
Outline: as §1

KRas G12C = KRas G12C (Homo sapiens, UniProt P01116, G12C); test: biochemical;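 further: binding to KRas assessed by TR-FRET displacement after one hour incubation at room temperature, potency fitted from percent-of-control values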
Description: as §4

KRas G12A = KRas G12A (Homo sapiens, UniProt P01116, G12A); test: biochemical;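 further: binding to KRas measured by TR-FRET displacement after one hour at room temperature, IC50 from a four-parameter fit of percent-of-control values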
Description: as §4

KRas G12S = KRas G12S (Homo sapiens, UniProt P01116, G12S); test: biochemical;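 further: TR-FRET displacement binding to KRas, read after one hour incubation at room temperature, IC50 from four-parameter fit of percent of control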
Description: as §4

KRas WT = KRas WT (Homo sapiens, UniProt P01116); test: biochemical;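 further: binding to KRas read as TR-FRET displacement after a one-hour room-temperature incubation, IC50 derived from percent-of-control values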
KRas WT, sequence (P01116 1-169 isoform P01116-2): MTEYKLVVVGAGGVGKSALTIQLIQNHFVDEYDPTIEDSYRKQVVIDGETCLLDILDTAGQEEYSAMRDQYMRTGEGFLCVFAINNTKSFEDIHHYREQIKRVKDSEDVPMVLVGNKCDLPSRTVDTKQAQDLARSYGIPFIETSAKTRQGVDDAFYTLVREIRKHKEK
Description: as §4

KRas G12R, sequence (P01116 1-169 isoform P01116-2 G12R): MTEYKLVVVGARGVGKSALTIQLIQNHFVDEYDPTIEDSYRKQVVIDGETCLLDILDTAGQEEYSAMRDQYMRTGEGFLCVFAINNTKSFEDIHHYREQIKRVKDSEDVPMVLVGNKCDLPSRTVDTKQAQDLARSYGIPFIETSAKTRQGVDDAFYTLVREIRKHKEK
KRas G12D, sequence (P01116 1-169 isoform P01116-2 G12D): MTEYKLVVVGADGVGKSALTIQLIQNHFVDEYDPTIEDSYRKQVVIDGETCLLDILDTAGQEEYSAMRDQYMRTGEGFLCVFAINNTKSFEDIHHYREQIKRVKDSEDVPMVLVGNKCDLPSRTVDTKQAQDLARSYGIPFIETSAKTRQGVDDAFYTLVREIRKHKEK
KRas G12V, sequence (P01116 1-169 isoform P01116-2 G12V): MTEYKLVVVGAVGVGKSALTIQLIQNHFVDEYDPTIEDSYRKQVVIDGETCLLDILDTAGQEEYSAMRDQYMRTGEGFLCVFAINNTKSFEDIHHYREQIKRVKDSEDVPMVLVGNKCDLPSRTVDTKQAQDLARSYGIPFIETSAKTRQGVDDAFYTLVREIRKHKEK
KRas G12A, sequence (P01116 1-169 isoform P01116-2 G12A): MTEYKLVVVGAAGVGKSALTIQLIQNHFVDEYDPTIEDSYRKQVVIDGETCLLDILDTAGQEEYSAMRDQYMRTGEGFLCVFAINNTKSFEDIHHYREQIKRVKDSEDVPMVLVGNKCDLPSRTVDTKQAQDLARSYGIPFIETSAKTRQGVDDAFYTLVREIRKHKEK
KRas G12S, sequence (P01116 1-169 isoform P01116-2 G12S): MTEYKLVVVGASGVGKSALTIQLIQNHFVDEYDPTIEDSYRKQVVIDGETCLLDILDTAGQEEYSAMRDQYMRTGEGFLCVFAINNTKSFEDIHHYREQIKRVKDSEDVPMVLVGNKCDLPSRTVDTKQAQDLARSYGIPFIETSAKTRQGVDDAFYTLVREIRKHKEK
KRas G12C, sequence (P01116 1-169 isoform P01116-2 G12C): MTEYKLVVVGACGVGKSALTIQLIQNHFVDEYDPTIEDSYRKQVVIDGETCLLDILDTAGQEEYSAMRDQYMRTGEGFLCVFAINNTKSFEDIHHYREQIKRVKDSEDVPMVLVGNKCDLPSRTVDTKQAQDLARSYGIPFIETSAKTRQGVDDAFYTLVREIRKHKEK

Structure (SMILES)	IC50 (pERK in ASPC1 cells) [nM]	IC50 (pERK in HCT116 cells) [nM]	IC50 (pERK in H460 cells) [nM]	IC50 (KRas G12V) [nM]	IC50 (pERK in H358 cells) [nM]	IC50 (KRas G12R) [nM]	IC50 (KRas G12D) [nM]	IC50 (pERK in MKN1 cells) [nM]	IC50 (pERK in H727 cells) [nM]	IC50 (pERK in PSN1 cells) [µM]	IC50 [1] [nM]	IC50 [2] [nM]	IC50 [3] [nM]	IC50 (KRas G12C) [nM]	IC50 (KRas G12A) [nM]	IC50 (KRas G12S) [nM]	IC50 (KRas WT) [nM]
CCc1c(F)ccc2cc(O)cc(-c3ncc4c(N5CCCC6(CCSC6)C5)nc(OC[C@@]56CCCN5C[C@H](F)C6)nc4c3F)c12 (stereo partly drawn) [Example 476, 5-ethyl-6-fluoro-4-(8-fluoro-2-(((2R,7aS)-2-fluorotetrahydro-1H-pyrrolizin-7a(5H)-yl)methoxy)-4-(2-thia-7-azaspiro[4.5]decan-7-yl)pyrido[4,3-d]pyrimidin-7-yl)naphthalen-2-ol]	36	275	99	≤ 2	35	4	≤ 2	14	148	3.59	–	–	–	–	–	–	–
CCc1c(F)ccc2cc(O)cc(-c3ncc4c(N5CCCC6(C5)NC(=O)NC6=O)nc(OC[C@@]56CCCN5C[C@H](F)C6)nc4c3F)c12 (stereo partly drawn) [Example 196]	97	114	33	≤ 2	31	≤ 2	≤ 2	39	167	0.314	361	452	48	–	–	–	–
CCc1c(F)ccc2cc(O)cc(-c3ncc4c(N5C[C@@H]6C[C@H](C5)[C@H](O)C6)nc(OCC5(CN(C)C)CC5)nc4c3F)c12 [Example 360, (1R,5R,6R)-3-(2-((1-((dimethylamino)methyl)cyclopropyl)methoxy)-7-(8-ethyl-7-fluoro-3-hydroxynaphthalen-1-yl)-8-fluoropyrido[4,3-d]pyrimidin-4-yl)-3-azabicyclo[3,2,1]octan-6-ol]	49	140	54	≤ 2	19	≤ 2	5	2	62	9.19	–	–	–	–	–	–	–
CCc1c(F)ccc2cc(O)cc(-c3ncc4c(N5CC(c6ccncc6)C5)nc(OC[C@@]56CCCN5C[C@H](F)C6)nc4c3F)c12 [Example 172, 5-ethyl-6-fluoro-4-(8-fluoro-2-(((2R,7aS)-2-fluorohexahydro-1H-pyrrolizin-7a-yl)methoxy)-4-(3-(pyridin-4-yl)azetidin-1-yl)pyrido[4,3-d]pyrimidin-7-yl)naphthalen-2-ol]	96	170	32	≤ 2	6	≤ 2	9	41	26	≥ 10	481	192	79	–	–	–	–
CCc1c(F)ccc2cc(O)cc(-c3ncc4c(N5CCC[C@]6(C5)NC(=O)NC6=O)nc(OC[C@@]56CCCN5C[C@H](F)C6)nc4c3F)c12 [Example 307, (R)-7-(7-(8-ethyl-7-fluoro-3-hydroxynaphthalen-1-yl)-8-fluoro-2-(((2R,7aS)-2-fluorohexahydro-1H-pyrrolizin-7a-yl)methoxy)pyrido[4,3-d]pyrimidin-4-yl)-1,3,7-triazaspiro[4.5]decane-2,4-dione]	58	33	12	≤ 2	15	≤ 2	≤ 2	5	85	0.106	117	215	11	–	–	–	–
CCc1c(F)ccc2cc(O)cc(-c3ncc4c(N5CCC[C@@](C)(O)C5)nc(OCC(C)(C)CN(C)C)nc4c3F)c12 [Example 366, (R)-1-(2-(3-(dimethylamino)-2,2-dimethylpropoxy)-7-(8-ethyl-7-fluoro-3-hydroxynaphthalen-1-yl)-8-fluoropyrido[4,3-d]pyrimidin-4-yl)-3-methylpiperidin-3-ol]	60	321	108	3	61	9	3	11	185	5.53	–	–	–	–	–	–	–
CCc1c(F)ccc2cc(O)cc(-c3ncc4c(N5CCCC(O)CC5)nc(OC[C@@]56CCCN5C[C@H](F)C6)nc4c3F)c12 (stereo in doubt) [Example 346, 1-(7-(8-ethyl-7-fluoro-3-hydroxynaphthalen-1-yl)-8-fluoro-2-(((2R,7aS)-2-fluorohexahydro-1H-pyrrolizin-7a-yl)methoxy)pyrido[4,3-d]pyrimidin-4-yl)azepan-4-ol]	99	133	166	≤ 2	57	≤ 2	≤ 2	11	113	7.39	–	–	–	–	–	–	–
CCc1cccc2cc(O)c(F)c(-c3ncc4c(N5CCC[C@@](C)(O)C5)nc(OC[C@@]56CCCN5C[C@H](F)C6)nc4c3F)c12 [Example 472, (3R)-1-(7-(8-ethyl-2-fluoro-3-hydroxynaphthalen-1-yl)-8-fluoro-2-(((2R,7aS)-2-fluorohexahydro-1H-pyrrolizin-7a-yl)methoxy)pyrido[4,3-d]pyrimidin-4-yl)-3-methylpiperidin-3-ol]	89	1070	414	16	231	18	6	80	406	9.29	–	–	–	–	–	–	–
CCc1c(F)ccc2cc(O)cc(-c3ncc4c(N5CCCCCCC5)nc(OC[C@@]56CCCN5C[C@H](F)C6)nc4c3F)c12 [Example 325, 4-(4-(azocan-1-yl)-8-fluoro-2-(((2R,7aS)-2-fluorohexahydro-1H-pyrrolizin-7a-yl)methoxy)pyrido[4,3-d]pyrimidin-7-yl)-5-ethyl-6-fluoronaphthalen-2-ol]	49	56	61	≤ 2	164	≤ 2	≤ 2	17	45	5.15	–	–	–	≤ 2	≤ 2	≤ 2	≤ 2
CC1(O)COCCN(c2nc(OC[C@@]34CCCN3C[C@H](F)C4)nc3c(F)c(-c4cc(O)cc5ccc(F)c(Cl)c45)ncc23)C1 (stereo partly drawn) [Example 419, 4-(7-(8-chloro-7-fluoro-3-hydroxynaphthalen-1-yl)-8-fluoro-2-(((2R,7aS)-2-fluorohexahydro-1H-pyrrolizin-7a-yl)methoxy)pyrido[4,3-d]pyrimidin-4-yl)-6-methyl-1,4-oxazepan-6-ol]	71	319	182	3	58	8	3	14	154	3.48	–	–	–	–	–	–	–
C#Cc1c(F)ccc2cc(O)cc(-c3ncc4c(N5CCOCC(CO)C5)nc(OC[C@@]56CCCN5C[C@H](F)C6)nc4c3F)c12 (stereo partly drawn) [Example 391, 5-ethynyl-6-fluoro-4-(8-fluoro-2-(((2R,7aS)-2-fluorohexahydro-1H-pyrrolizin-7a-yl)methoxy)-4-(6-(hydroxymethyl)-1,4-oxazepan-4-yl)pyrido[4,3-d]pyrimidin-7-yl)naphthalen-2-ol]	61	563	143	≤ 2	22	≤ 2	≤ 2	12	74	3.99	–	–	–	–	–	–	–

Reference: US12398154B2, “Azaquinazoline pan-KRas inhibitors” (Mirati Therapeutics, Inc., priority 2020, dated 2025)
